Results taken from paper PMC4607650 (Bioorganic & medicinal chemistry letters, 2015).
Entries after “also recorded” stand apart in the source; their conditions may differ. Blank lines part the entries; values can stand above or below the compound they belong to.

Tests used:
hP2Y14R [1] = target: T1, hP2Y14R (Homo sapiens, UniProt Q15391); experiment: competition for fluorescent binding of tracer 11
T1 sequence (Q15391 1-338): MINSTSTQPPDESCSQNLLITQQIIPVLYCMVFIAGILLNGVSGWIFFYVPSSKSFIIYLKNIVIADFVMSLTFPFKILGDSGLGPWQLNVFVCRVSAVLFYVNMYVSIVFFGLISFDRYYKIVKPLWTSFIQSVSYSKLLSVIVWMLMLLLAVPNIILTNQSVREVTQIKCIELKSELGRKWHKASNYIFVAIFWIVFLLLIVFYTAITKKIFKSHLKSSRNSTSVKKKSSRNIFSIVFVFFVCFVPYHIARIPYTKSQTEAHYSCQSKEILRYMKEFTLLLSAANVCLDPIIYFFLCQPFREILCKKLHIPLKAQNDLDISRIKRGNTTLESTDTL

P2Y14R-CHO cells = target: T2, P2Y14R-CHO cells (Homo sapiens, UniProt Q15391); experiment: confocal fluorescence microscopy labeling of P2Y14R-CHO cells by 11; format: cell-based
T2 sequence (Q15391 1-338): T1 sequence (Q15391 1-338)

hP2Y14R [2] = target: T1, hP2Y14R; format: binding
human P2Y14R = target: T3, human P2Y14R (Homo sapiens, UniProt Q15391); experiment: inhibition of forskolin-stimulated cAMP accumulation in CHO-P2Y14R cells; format: cell-based; details: cAMP EC50 ratio, hP2Y14R-CHO cells
T3 sequence (Q15391 1-338): T1 sequence (Q15391 1-338)

P2Y6R = details: read-out: EC50 for activation of the P2Y6R; cited from earlier work

SMILES: S=C=Nc1cccc(NC(=S)NCCCCNC(=S)Nc2cccc(N=C=S)c2)c1 [Compound 13]
inhibition of binding of 11 at hP2Y14R at fixed concentration (hP2Y14R [1]; test ligand at 10 μM, tracer 11 50 nM, FCM): did not show any significant binding; also recorded: No inhibition at 10 μM

inhibition of fluorescent labeling by 11 (confocal microscopy) (P2Y14R-CHO cells): complete inhibition of binding
inhibition of binding of 11 (FCM, concentration dependence) (hP2Y14R [1]): Nearly complete inhibition
SMILES: O=C(O)c1cc(-c2ccc(C3CCNCC3)cc2)c2ccc(-c3ccc(C(F)(F)F)cc3)cc2c1 [Compound 5, 4-(4-(piperidin-4-yl)-phenyl)-7-(4-(trifluoromethyl)-phenyl)-2-naphthoic acid]

Bmax (hP2Y14R [2]; FCM saturation binding, n=3): 44,400 MESF
level of nonspecific binding (hP2Y14R [2]; FCM, coincubation with up to 200 nM 5): very low
potency enhancement of the fluorescent conjugate versus 47 nM parent (human P2Y14R): 50 fold
SMILES: O=C(COc1ccc(C2=[N+]3C(=Cc4ccc(-c5cccs5)n4[B-]3(F)F)C=C2)cc1)NCCCCCNC(=O)[C@H]1O[C@H](OP(=O)(O)OP(=O)(O)OCC2OC(n3ccc(=O)[nH]c3=O)C(O)C2O)[C@H](O)[C@@H](O)[C@@H]1O (some centres unmarked) [Compound 11]

SMILES: CONc1ccn([C@@H]2O[C@H](COP(=O)(O)OP(=O)(O)OP(=O)(O)OC[C@H]3O[C@@H](n4ccc(=O)[nH]c4=O)[C@@H](O)[C@H]3O)[C@H](O)[C@@H]2O)c(=O)n1 [Compound 12, P^1-(uridine 5′-)-P^3-(N^4-methoxycytidine 5′-)triphosphate]
Ki at P2Y14R relative to EC50 at P2Y6R (hP2Y14R [1]; Ki (FCM, P2Y14R) higher than P2Y6R EC50): about 500 fold
EC50 (P2Y6R): 12 nM
